The source of these data is patent US10407445B2, “Hepatitis C virus inhibitors” (ENANTA PHARMACEUTICALS, INC., priority 2013, dated 2019).

Where two headings read alike, the source gives them in different places.

In one assay the test system is HCV GT 1a replicon. Put plainly: HCV replicon assay, stable GT 1a replicon (Renilla luciferase). The following applies: Hepatitis C virus, GT1A. It is filed as cell-based. The procedure, abridged: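 Huh-7.5 cells stably carrying a GT1a replicon (H77-based) with Renilla luciferase-Neo reporter, 4000 cells/well, sixteen-point half-log compound series, phenol red-free DMEM without G418. Luciferase read after 72 h relative to DMSO-treated cells gives EC50.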

For assay [1], the system named is GT1a replicon encoding NS5A mutation Q30R. Put plainly: Transient replication assay, GT1a replicon with NS5A mutation Q30R. It is filed as cell-based. The settings on record: Hepatitis C virus.
Where [2] appears, read: HCV GT 1a replicon, 72 h, read-out: EC50 1a.

For `COC(=O)N[C@H](C(=O)N1C[C@]2(CCCOC2)C[C@H]1c1ncc(-c2ccc(-c3ccc4c(ccc5nc([C@@H]6CCCN6C(=O)[C@@H](NC(=O)OC)C(C)C)[nH]c54)c3)cc2)[nH]1)C(C)C` [drawing 233], the EC50 worked out at 0.01 nM in the assay on HCV GT 1a replicon (comparative table, GT 1a, read-out: EC50 (nM) 1a) and 0.1 nM in assay [1] (read-out: EC50 (nM) 1a Q30R).
`COC(=O)N[C@H](C(=O)N1CCC[C@H]1c1ncc(-c2ccc(-c3ccc4c(c3)OCc3nc([C@@H]5C[C@@]6(CCCOC6)CN5C(=O)[C@@H](NC(=O)OC)C(C)C)[nH]c3-4)cc2)[nH]1)C(C)C` [Compound 33]: the figures for the EC50 (in the assay on HCV GT 1a replicon (setting [2]); in assay [1] (read-out: EC50 1a Q30R)) were 0.027 nM and 0.2 nM, respectively.
The matching figures for `COC(=O)N[C@H](C(=O)N1C[C@@]2(CCCOC2)C[C@H]1c1ncc(-c2ccc(-c3ccc4c(ccc5nc([C@@H]6CCCN6C(=O)[C@@H](NC(=O)OC)C(C)C)[nH]c54)c3)cc2)[nH]1)C(C)C` [Compound 27]: 0.013 nM and 0.06 nM.
The matching figures for `COC(=O)N[C@H](C(=O)N1[C@H](c2nc3ccc4cc(-c5ccc(-c6cnc([C@@H]7C[C@@]8(CCCOC8)CN7C(=O)[C@H](NC(=O)OC)C7C[C@@H](C)O[C@H](C)C7)[nH]6)cc5)ccc4c3[nH]2)C[C@@H]2CCCC[C@@H]21)C(C)C` (stereo in doubt) [Compound 39]: 0.214 nM and 0.05 nM.
The corresponding values for `COC(=O)N[C@H](C(=O)N1CCC[C@H]1c1nc2ccc3cc(-c4ccc5c(ccc6nc([C@@H]7CCCN7C(=O)[C@@H](NC(=O)OC)C(C)C)[nH]c65)c4)ccc3c2[nH]1)C(C)C` [Example 101] are 0.011 nM and 0.2 nM.
Turning to `COC(=O)N[C@H](C(=O)N1C[C@]2(CCCOC2)C[C@H]1c1ncc(-c2ccc(-c3ccc4c(ccc5nc([C@@H]6CCCN6C(=O)[C@@H](NC(=O)OC)C(C)C)[nH]c54)c3)cc2)[nH]1)C(C)C` [Compound 47], the EC50 came to 0.015 nM with HCV GT 1a replicon (setting [2]) and 0.1 nM in assay [1] (read-out: EC50 1a Q30R).
The corresponding values for `COC(=O)N[C@H](C(=O)N1C[C@]2(CCCOC2)C[C@H]1c1ncc(-c2ccc(-c3ccc4c(ccc5nc([C@@H]6C[C@@H]7CCC[C@@H]7N6C(=O)[C@@H](NC(=O)OC)C(C)C)[nH]c54)c3)cc2)[nH]1)C(C)C` [Compound 16] are 0.009 nM and 0.02 nM.
On to `COC(=O)N[C@H](C(=O)N1C[C@]2(CCCOC2)C[C@H]1c1nc2ccc3cc(-c4ccc5c(ccc6nc([C@@H]7C[C@H]8C[C@H]8N7C(=O)[C@@H](NC(=O)OC)C(C)C)[nH]c65)c4)ccc3c2[nH]1)C(C)C` [Compound 6], for which the 50% effective concentration (EC50) turned out to be 0.007 nM in the assay with HCV GT 1a replicon (setting [2]) and 0.04 nM in assay [1] (read-out: EC50 1a Q30R).
The matching figures for `COC(=O)N[C@H](C(=O)N1CCC[C@H]1c1nc2ccc(C#Cc3ccc4c(ccc5nc([C@@H]6CCCN6C(=O)[C@@H](NC(=O)OC)C(C)C)[nH]c54)c3)cc2[nH]1)C(C)C` [Example 103]: 0.012 nM and 3 nM.
As for `COC(=O)N[C@H](C(=O)N1C[C@]2(CCCOC2)C[C@H]1c1nc2ccc3cc(-c4ccc5c(ccc6nc([C@@H]7C[C@@H]8CCC[C@@H]8N7C(=O)[C@@H](NC(=O)OC)C(C)C)[nH]c65)c4)ccc3c2[nH]1)C(C)C` [Compound 9], the EC50 in the assay with HCV GT 1a replicon (setting [2]) was found to be 0.007 nM; in assay [1] (read-out: EC50 1a Q30R), 0.01 nM.
`COC(=O)N[C@H](C(=O)N1C[C@@]2(CCOC2)C[C@H]1c1ncc(-c2ccc(-c3ccc4c(ccc5nc([C@@H]6CCCN6C(=O)[C@@H](NC(=O)OC)C(C)C)[nH]c54)c3)cc2)[nH]1)C(C)C` [Compound 50]: the EC50 with HCV GT 1a replicon (setting [2]) came to 0.014 nM; in assay [1] (read-out: EC50 1a Q30R), 0.4 nM.
The matching figures for `COC(=O)N[C@H](C(=O)N1CC2(CC2)C[C@H]1c1ncc(-c2ccc(-c3ccc4c(ccc5nc([C@@H]6C[C@@]7(CCCOC7)CN6C(=O)[C@@H](NC(=O)OC)C(C)C)[nH]c54)c3)cc2)[nH]1)C(C)C` [Compound 8]: 0.01 nM and 0.1 nM.
The matching figures for `COC(=O)N[C@H](C(=O)N1C[C@]2(CCCOC2)C[C@H]1c1ncc(-c2ccc(-c3ccc4c(c3)OCc3nc([C@@H]5C[C@@H]6CCCC[C@@H]6N5C(=O)[C@@H](NC(=O)OC)C(C)C)[nH]c3-4)cc2)[nH]1)C(C)C` [Compound 42]: 0.006 nM and 0.05 nM.
In the case of `COC(=O)N[C@H](C(=O)N1C[C@]2(CCCOC2)C[C@H]1c1ncc(-c2ccc(-c3ccc4c(ccc5nc([C@@H]6C[C@@H]7CCCC[C@@H]7N6C(=O)[C@@H](NC(=O)OC)C(C)C)[nH]c54)c3)cc2)[nH]1)C(C)C` [Compound 29], the concentration for a half-maximal effect (EC50) turned out to be 0.006 nM in the assay with HCV GT 1a replicon (setting [2]) and 0.01 nM in assay [1] (read-out: EC50 1a Q30R).
